Data on eight compounds can be found in patent publication US9662308B2, “Orally bioavailable pentamidine prodrugs for the treatment of diseases” (Dritte Patentportfolio Beteiligungsgesellschaft mbH & Co. KG, priority 2008, dated 2017).

≈ marks a conversion by molar mass, not a printed value. Where two headings read alike, the source gives them in different places. Bounds are passed on as bounds.

Series [1] is described as follows: Solubility in 50 mM phosphate buffer (HPLC). The note with it: for solubility at 20 min: 50 mM phosphate buffer, thermodynamic from solid. How it is done: […] Subsequently, the undissolved part was removed by centrifugation (12,000 rpm) and the samples were immediately measured by HPLC. The evaluation of the solubility ensued via a calibration of N,N′-bis(succinyloxy)pentamidine (1) in DMSO.
Solubilities were determined analogously to the method described for compound 1.

In series [2] the test system is 9000×g supernatants, microsomes and mitochondria of human liver and kidney tissues. It is filed as in vitro ADME. The note with it: pH 6.3. On the procedure: The activation of the prodrug was determined in vitro by means of subcellular enzyme preparations. 9000×g of supernatants, microsomes and mitochondria of human and porcine liver and kidney tissues were used as the enzyme preparations. The incubation batches were composed of […] prodrug, 1 mM NADH, 1 U esterase and 0.3 mg enzyme preparation dissolved in 150 μ100 mM phosphate buffer, pH 6.3. The incubation took place over 20 min in a shaking water bath at 37° C. The incubation was terminated by adding 150 μl of acetonitrile. The samples were subsequently shaken for 10 min and the precipitated protein was removed by centrifuging at 10,000 RPM for 15 min. The supernatant was measured by means of HPLC.

How the values of series [3] were obtained: For the stability analyses, a 0.1 mM solution of N,N′-bis(succinyloxy)pentamidine (1) was prepared in a 50 mM potassium phosphate buffer/DMSO (90/10, vol/vol). The analysis took place at pH values of 2.0, 7.4 and 9.0. One sample was taken and immediately analyzed by HPLC every 15 min over a period of 150 min.
(§1) The stability analyses were evaluated by means of the following HPLC method: […]

The procedure of series [4]:
Samples were stored at room temperature and 70° C. over a defined period and examined for analyzing the prodrug (1) storage stability. The storage period was 6 months for the room temperature samples, 7 days for the 70° C. samples. The prodrug (1) content was determined by means of HPLC. For this purpose, the samples were dissolved in a mixture of equal parts of methanol and phosphate buffer (20 mM, pH 7.4) and immediately measured. The HPLC method corresponds to the method described under “Characterization of the prodrugs”.
This is another data set of the same source.

The procedure of series [5]:
Further analyses were conducted with human and murine plasma. 900 μl of the plasma was mixed with 100 μl of a 2 mM solution of N,N′-bis(succinyloxy)pentamidine (1). The final concentration of N,N′-bis(succinyloxy)pentamidine (1) was thus 0.2 mM. The samples were incubated at 37° C. in a shaking water bath and samples were taken after 0, 15, 30, 45, 60, 75, 90, 105 and 120 min. For this purpose, 100 μl was drawn in each case and mixed with 100 μl acetonitrile. The samples were shaken, centrifuged for 5 min and the supernatant was measured by HPLC.
as §1
The source holds these as a separate data set.

The conditions of series [6]: rat, in vivo.
The subject of series [7] is plasmodia. To be noted: cited from earlier work.
The subject of series [8] is trypanosomes. The note with it: cited from earlier work.
In series [9] the test system is leishmania. To be noted: cited from earlier work.

As to `CC(=O)ON=C(N)c1ccc(OCCCCCOc2ccc(C(N)=NOC(C)=O)cc2)cc1` [N,N′-bis(acetoxy)pentamidine], the Solubility (usually the concentration that dissolves in the medium under given conditions) in series [1] (pH 2.0) is 14 ± 8 µM (≈ 6.39 µg/mL); in series [1] (pH 7.4), 2 ± 1 µM (≈ 0.913 µg/mL); in [1] (pH 9.0), 3 ± 2 µM (≈ 1.37 µg/mL).
On the same counts, the results for `NC(=NO)c1ccc(OCCCCCOc2ccc(C(N)=NO)cc2)cc1` [N,N′-bis(dihydroxy)pentamidine] are above 35000 µM, 95 ± 8 µM (≈ 35.4 µg/mL) and 21 ± 3 µM (≈ 7.82 µg/mL).
For `CON=C(N)c1ccc(OCCCCCOc2ccc(C(N)=NOC)cc2)cc1` [N,N′-bis(methoxy)pentamidine] the same measures were 1304 ± 28 µM (≈ 522 µg/mL), 8 ± 1 µM (≈ 3.2 µg/mL) and 10 ± 2 µM (≈ 4 µg/mL).
Turning to `N=C(NOC(=O)CCC(=O)O)c1ccc(OCCCCCOc2ccc(C(=N)NOC(=O)CCC(=O)O)cc2)cc1` [N,N′-bis(succinyloxy)pentamidine (1), 4,4′-Pentamethylendioxy-bis-[N-(carboxypropionyloxy)]benzamidine], the Solubility in series [1] is 7500 µM (≈ 4290 µg/mL); in series [1] (pH 2), “hydrolysis”; in series [1] (pH 7.4), 7500 ± 340 µM (≈ 4290 µg/mL); in [1] (pH 9), 10780 ± 70 µM (≈ 6170 µg/mL). The “Solubility in acidic medium” value in [1] (pH 2) is “in the mM range”. Further, the “Pentamidine formation (conversion rate)” value in [2] is 0.04 ± 0.01 nmol/min/mg. Besides, the “Stability in the neutral and slightly alkaline pH range” value in series [3] is “stable”. Besides, the “Hydrolysis in aqueous medium” value in [3] (pH 2.0) is “rapid hydrolysis”. For the same compound, the “Hydrolysis into monosuccinyl pentamidine and pentamidine diamidoxime (3)” value in series [3] (pH 7.4) and in series [3] (pH 9.0) was “only to a minor extent” in each case. The “content pentamidine diamidoxime(3)” value was 0.4 ± 0.01% area % in [4] (70° C., 0 days); 0.9 ± 0.01% area % in series [4] (70° C., 1 day); 1.0 ± 0.01% area % in series [4] (70° C., 2 days); 1.1 ± 0.01% area % in series [4] (70° C., 4 days); 1.5 ± 0.13% area % in series [4] (70° C., 7 days); 0.4 ± 0.01% area % in series [4] (room temperature, 0 months). Besides, the “content pentamidine diamidoxime(3)” value in series [4] (room temperature, 0.5 months) is on record as 0.5 ± 0.01% area %; in [4] (room temperature, 1 month) it was 0.2 ± 0.02% area %; in series [4] (room temperature, 2 months) it was 0.6 ± 0.16% area %; in series [4] (room temperature, 3 months), 0.6 ± 0.01% area %; in series [4] (room temperature, 6 months), 0.5 ± 0.01% area %. The “content prodrug (1)” value in series [4] (70° C., 0 days) was 98.4 area %; in series [4] (70° C., 1 day), 98.0 area %; in [4] (70° C., 2 days) it was 97.6 area %; in series [4] (70° C., 4 days), 97.9 area %; in [4] (70° C., 7 days), 97.4 area %; in [4] (room temperature, 0 months), 98.4 area %. Besides, the “content prodrug (1)” value in [4] (room temperature, 0.5 months) came out at 98.4 area %; in series [4] (room temperature, 1 month), 98.6 area %; in series [4] (room temperature, 2 months), 97.5 area %; in series [4] (room temperature, 3 months) it was 97.5 area %; in series [4] (room temperature, 6 months), 97.8 area %. Moreover, the content succinyloxypentamidin in series [4] (70° C., 0 days) came to 1.0 ± 0.02% area %; in series [4] (70° C., 1 day) it was 1.1 ± 0.03% area %; in series [4] (70° C., 2 days), 1.3 ± 0.20% area %; in [4] (70° C., 4 days), 0.9 ± 0.01% area %; in [4] (70° C., 7 days) it was 1.1 ± 0.26% area %. Further, the content succinyloxypentamidine amounted to 1.0 ± 0.02% area % in series [4] (room temperature, 0 months); 1.0 ± 0.03% area % in series [4] (room temperature, 0.5 months); 1.2 ± 0.16% area % in series [4] (room temperature, 1 month); 1.8 ± 0.02% area % in series [4] (room temperature, 2 months); 1.8 ± 0.04% area % in [4] (room temperature, 3 months); 1.5 ± 0.19% area % in series [4] (room temperature, 6 months). For the same compound, in [5], the Hydrolysis in plasma entry was “markedly”. Further, the Relative oral bioavailability result in [6] is listed as “up to 98%”.
With `CC(C)[C@H](N)C(=O)O/N=C(\N)c1ccc(OCCCCCOc2ccc(/C(N)=N/OC(=O)[C@@H](N)C(C)C)cc2)cc1` [N,N′-bis(valoxy)pentamidine], the values for the Solubility in [1] (pH 2.0), in [1] (pH 7.4) and in series [1] (pH 9.0) were above 35000 µM, 157 ± 19 µM (≈ 89.6 µg/mL) and 84 ± 18 µM (≈ 47.9 µg/mL), respectively.
Turning to `N/C(=N\O)c1ccc(OCCCCCOc2ccc(/C(N)=N/O)cc2)cc1` [Pentamidine diamidoxime (3), Pentamidine diamidoxime], the solubility (in general, the dissolved amount per volume that the medium holds) at 20 min came out at 4210 ± 231 µM (≈ 1570 µg/mL) in series [1] (pH 2, aqueous buffer); 12 ± 1 µM (≈ 4.47 µg/mL) in series [1] (pH 7.4, aqueous buffer); 4 ± 1 µM (≈ 1.49 µg/mL) in [1] (pH 9, aqueous buffer).
Turning to `N=C(N)c1ccc(OCCCCCOc2ccc(C(N)=NO)cc2)cc1` [Pentamidine monoamidoxime], the figures for the Solubility in series [1] (pH 2.0), in [1] (pH 7.4) and in series [1] (pH 9.0) were 22285 ± 1244 µM (≈ 7940 µg/mL), 1370 ± 291 µM (≈ 488 µg/mL) and 1257 ± 40 µM (≈ 448 µg/mL), respectively.
On to `N=C(N)c1ccc(OCCCCCOc2ccc(C(=N)N)cc2)cc1` [Pentamidine], for which the values for the IC50 in [7], in series [8] and in series [9] were 35 to 129 nM, 0.8 to 3.2 nM and 820 to 2590 nM, respectively.
